One assay addresses GSK3B (Homo sapiens, UniProt P49841). The assay can be described thus: DSF. In kind it is binding. Set-up: purchased in-house DSF panel (SGC Frankfurt). To be noted: 10 μM compound. From the text: (§1) To investigate the selectivity profile of the different series, a differential scanning fluorimetry (DSF) assay was used. This assay offers a rapid and sensitive screening method that determines the denaturation temperature of a protein in absence and presence of a compound. This assay format measures the fluorescence of a dye, which depends on the folding state of the protein. The difference between the melting temperature (ΔTm) in the absence and presence of the compound represents the binding strength to the protein.
(§2) Measurements were performed in duplicates.

The next assay addresses T1, CDK2 (Homo sapiens, UniProt P24941).
T1 construct: purchased in-house DSF panel (SGC Frankfurt)
The assay can be described thus: DSF. Type of assay: binding. To be noted: 10 μM compound.
Excerpt: as §1, §2

The target in the next assay is T2, CDK16 (Homo sapiens, UniProt Q00536).
T2 construct: purchased in-house DSF panel (SGC Frankfurt)
The experiment in a line: DSF. Type of assay: binding. To be noted: 10 μM compound.
Excerpt: as §1, §2

Another assay has as its target T3, CDK16/Cyclin Y (Homo sapiens, UniProt Q00536).
T3 construct: Full-length kinases were obtained as plasmids cloned in frame with a terminal NanoLuc-fusion; CS1810C178 (CCNY); host or cells: HEK293T
The assay can be described thus: NanoBRET. Type of assay: cell-based. To be noted: Figure 7, 11-point dose-response in duplicates; read-out: NanoBRET EC50 ± SEM against CDK16. On the procedure:
Next, to specifically quantify the outcome of the cellular activity of the compounds, a NanoBRET cellular target engagement assay was performed. The determination of the cellular potency on CDK16 correlated well with the corresponding DSF assay data (Figure S2). […] As mentioned before, the exchange from a methyl ester to an iso-propyl or tert-butyl ester led to a higher stabilization of the kinase in the DSF assay, which correlated with an increase in cellular potency as determined in the NanoBRET assay. […] The number of potential off-targets was low with 1 and 2 kinases with ΔTm >5 °C (Figure 4), highlighting these inhibitors for more comprehensive selectivity studied within the CDK and particular the TAIRE subfamily.
The assay was performed as described previously. In brief: Full-length kinases were obtained as plasmids cloned in frame with a terminal NanoLuc-fusion (Promega, Madison, WI, USA), as specified in table (Table S6). Plasmids were transfected into HEK293T cells using FuGENE HD (Promega, E2312) and proteins were allowed to express for 20h. Serially diluted inhibitor and NanoBRET Kinase Tracer (Promega) at a concentration determined previously as the KD,app (Table S5) were pipetted into white 384-well plates (Greiner 781207) using an Echo acoustic dispenser (Labcyte, San Jose, CA, USA). The corresponding protein-transfected cells were added and reseeded at a density of 2.5 × 10^5 cells/mL after trypsinization and resuspending in Opti-MEM without phenol red (Life Technologies, Carlsbad, CA, USA). The system was allowed to equilibrate for 2 h at 37 °C/5% CO2 prior to BRET measurements. To measure BRET, NanoBRET NanoGlo Substrate + Extracellular NanoLuc Inhibitor (Promega, N2540) was added as per the manufacturer’s protocol, and filtered luminescence was measured on a PHERAstar plate reader (BMG Labtech, Ortenberg, Germany) equipped with a luminescence filter pair (450 nm BP filter (donor) and 610 nm LP filter (acceptor)). Competitive displacement data were then graphed using GraphPad Prism 9 software using a normalized 3-parameter curve fit with the following equation: Y = 100/(1 + 10^(X–LogEC50)).
In general terms: In BRET a luciferase serves as donor, and the signal depends on an acceptor being close.

GSK3B, sequence (P49841 35-386): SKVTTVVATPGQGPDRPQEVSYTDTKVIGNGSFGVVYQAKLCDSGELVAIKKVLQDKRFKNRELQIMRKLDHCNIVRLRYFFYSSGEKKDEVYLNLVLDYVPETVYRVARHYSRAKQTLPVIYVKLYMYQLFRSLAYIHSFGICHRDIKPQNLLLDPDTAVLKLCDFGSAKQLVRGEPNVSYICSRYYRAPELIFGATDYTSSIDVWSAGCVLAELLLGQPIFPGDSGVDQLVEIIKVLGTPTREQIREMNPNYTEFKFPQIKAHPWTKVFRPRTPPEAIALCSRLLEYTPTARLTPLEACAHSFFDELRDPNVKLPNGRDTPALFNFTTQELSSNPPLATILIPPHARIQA
T3 sequence (Q00536 whole entry, the tested form may be a part): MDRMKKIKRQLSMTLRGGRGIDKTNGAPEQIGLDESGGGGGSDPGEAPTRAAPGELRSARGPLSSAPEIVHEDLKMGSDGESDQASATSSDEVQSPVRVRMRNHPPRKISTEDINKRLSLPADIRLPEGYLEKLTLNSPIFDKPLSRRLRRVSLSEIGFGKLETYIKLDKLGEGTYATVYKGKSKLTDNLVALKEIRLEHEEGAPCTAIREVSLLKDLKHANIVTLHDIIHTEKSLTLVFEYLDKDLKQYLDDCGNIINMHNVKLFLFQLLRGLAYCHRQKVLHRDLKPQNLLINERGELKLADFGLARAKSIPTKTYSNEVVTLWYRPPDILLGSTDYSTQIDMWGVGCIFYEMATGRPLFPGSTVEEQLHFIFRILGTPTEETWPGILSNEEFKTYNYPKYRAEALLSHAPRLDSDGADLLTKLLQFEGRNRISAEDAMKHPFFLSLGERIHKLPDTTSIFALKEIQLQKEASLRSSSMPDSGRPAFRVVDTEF
T3 sequence (Q8ND76 2-341 partner limits assumed): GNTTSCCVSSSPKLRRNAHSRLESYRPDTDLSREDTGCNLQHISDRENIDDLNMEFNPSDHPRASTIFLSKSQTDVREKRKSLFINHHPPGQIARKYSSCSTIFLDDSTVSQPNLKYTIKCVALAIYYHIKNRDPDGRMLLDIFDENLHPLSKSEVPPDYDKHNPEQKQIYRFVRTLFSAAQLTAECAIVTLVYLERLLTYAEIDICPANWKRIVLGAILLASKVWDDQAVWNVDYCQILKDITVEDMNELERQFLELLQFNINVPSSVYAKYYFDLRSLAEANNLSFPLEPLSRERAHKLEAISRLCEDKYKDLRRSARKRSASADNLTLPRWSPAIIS
T2 sequence (Q00536 163-478): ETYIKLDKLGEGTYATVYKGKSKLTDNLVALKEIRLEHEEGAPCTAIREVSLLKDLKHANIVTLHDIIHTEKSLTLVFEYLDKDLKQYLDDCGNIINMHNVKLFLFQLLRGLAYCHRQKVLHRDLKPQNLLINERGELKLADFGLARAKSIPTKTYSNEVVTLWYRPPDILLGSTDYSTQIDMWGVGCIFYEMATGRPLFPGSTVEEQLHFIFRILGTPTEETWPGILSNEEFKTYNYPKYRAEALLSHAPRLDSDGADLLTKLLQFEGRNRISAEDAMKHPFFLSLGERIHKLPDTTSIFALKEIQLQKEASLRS

As usually defined, the ΔTm is the shift of the melting midpoint relative to a reference. Usually EC50 stands for the concentration needed to bring the measured effect to its halfway point. On to `CC(C)(C)OC(=O)NCCCCCCNc1nccc(Nc2cc(C3CC3)n[nH]2)n1` [11e, tert-butyl (6-((4-((3-cyclopropyl-1H-pyrazol-5-yl)amino)pyrimidin-2-yl)amino)hexyl)-carbamate], for which the ΔTm at 10 µM on GSK3B is 6.8 °C; at CDK2 it was 11.2 ± 0.3 °C; at CDK16 it was 8.9 ± 0.3 °C. Moreover, on CDK16/Cyclin Y, the concentration giving a half-maximal response (EC50) was 0.036 ± 0.0012 µM.
For `Cc1cc(Nc2ccnc(NCCCCCNC(=O)OC(C)(C)C)n2)[nH]n1` [38b, tert-butyl (5-((4-((3-methyl-1H-pyrazol-5-yl)amino)pyrimidin-2-yl)amino)pentyl)-carbamate] the same measures were 4.6 ± 0.1 °C, 4.7 ± 0.1 °C, 5.8 ± 0.2 °C and 0.253 ± 0.0192 µM.
The corresponding values for `CC(C)(C)c1cc(Nc2ccnc(Nc3ccc(CC#N)cc3)n2)[nH]n1` [40c, 2-(4-((4-((3-(tert-butyl)-1H-pyrazol-5-yl)amino)pyrimidin-2-yl)amino)phenyl)acetonitrile] are 10.4 °C, 10.7 ± 0.1 °C, 5.7 ± 0.1 °C and 0.351 ± 0.0341 µM.
For `CC(C)c1cc(Nc2ccnc(NCCCCCNC(=O)OC(C)(C)C)n2)[nH]n1` [39b, tert-butyl (5-((4-((3-isopropyl-1H-pyrazol-5-yl)amino)pyrimidin-2-yl)amino)pentyl)-carbamate] the same measures were 6.2 ± 0.1 °C, 9.5 ± 0.1 °C, 8.6 ± 0.1 °C and 0.047 ± 0.0041 µM.
Regarding `CC(C)(C)OC(=O)NCCCCCNc1ncc(Cl)c(Nc2cc(C3CC3)n[nH]2)n1` [13c, tert-butyl (5-((5-chloro-4-((3-cyclopropyl-1H-pyrazol-5-yl)amino)pyrimidin-2-yl)amino)pentyl)carbamate], the ΔTm at 10 µM on GSK3B came out at 5.9 ± 0.3 °C; at CDK2, 5.1 ± 0.3 °C; on CDK16, 3.2 °C. For the same compound, the EC50 on CDK16/Cyclin Y stood at 0.914 ± 0.011 µM.
With `COC(=O)c1cc(Nc2nc(Nc3cccc(CCNC(=O)OC(C)(C)C)c3)nc3ccccc23)[nH]n1` [23b, methyl 5-((2-((3-(2-((tert-butoxycarbonyl)amino)ethyl)phenyl)amino)quinazolin-4-yl)amino)-1H-pyrazole-3-carboxylate], the ΔTm at 10 µM was 1.4 ± 0.3 °C at GSK3B, 0.6 °C on CDK2 and 0.2 ± 0.2 °C on CDK16. The concentration for a half-maximal effect (EC50) at CDK16/Cyclin Y came out at 6.82 ± 0.28 µM.
`CC(C)(C)OC(=O)NCCCCCNc1nccc(Nc2cc(C(C)(C)C)n[nH]2)n1` [40b, tert-butyl (5-((4-((3-(tert-butyl)-1H-pyrazol-5-yl)amino)pyrimidin-2-yl)amino)pentyl)-carbamate]: the ΔTm at 10 µM on GSK3B was 4.9 ± 0.1 °C; at CDK2 it was 4.3 ± 0.1 °C; on CDK16 it was 5.1 ± 0.1 °C. The half-maximal effective concentration (EC50) at CDK16/Cyclin Y is 0.504 ± 0.0093 µM.
For `CC(C)(C)OC(=O)NCCCCCNc1nccc(Nc2cc(C3CC3)[nH]n2)n1` [11c, tert-butyl (5-((4-((3-cyclopropyl-1H-pyrazol-5-yl)amino)pyrimidin-2-yl)amino)pentyl) carbamate], the ΔTm at 10 µM was 7.1 ± 0.2 °C on GSK3B, 10.4 ± 0.3 °C at CDK2 and 9.4 °C at CDK16. Further, the EC50 at CDK16/Cyclin Y came to 0.033 ± 0.0001 µM.
The corresponding values for `COC(=O)c1cc(Nc2ccnc(NCc3ccc(N)cc3)n2)n[nH]1` [compound 25, methyl 3-((2-((4-aminobenzyl)amino)pyrimidin-4-yl)amino)-1H-pyrazole-5-carboxylate] are 10.3 ± 0.1 °C, 5.1 °C, 5.6 °C and 0.4 ± 0.0306 µM.
For `CNC(=O)c1cc(Nc2ccnc(NCCCCCNC(=O)OC(C)(C)C)n2)[nH]n1` [41b, tert-butyl (5-((4-((3-(methylcarbamoyl)-1H-pyrazol-5-yl)amino)pyrimidin-2-yl)amino)-pentyl)carbamate] the same measures were 1.3 ± 0.1 °C, 1.2 ± 0.2 °C, 1.5 ± 0.1 °C and 2.47 ± 0.248 µM.
The corresponding values for `CC(C)c1cc(Nc2ccnc(Nc3ccc(CCNC(=O)OC(C)(C)C)cc3)n2)[nH]n1` [39a, tert-butyl 4-((4-((3-isopropyl-1H-pyrazol-5-yl)amino)pyrimidin-2-yl)amino)phenethyl-carbamate] are 7 ± 0.1 °C, 9.8 ± 1.3 °C, 7.9 ± 0.4 °C and 0.07 ± 0.0049 µM.
With `COC(=O)c1cc(Nc2ccnc(NCCCCCNC(=O)OC(C)(C)C)n2)[nH]n1` [21c, methyl 5-((2-((5-((tert-butoxycarbonyl)amino)pentyl)amino)pyrimidin-4-yl)amino)-1H-pyrazole-3-carboxylate], the shift in melting temperature (ΔTm) at 10 µM at GSK3B was determined as 8.6 °C; at CDK2 it was 5.6 °C; at CDK16, 8.5 ± 0.2 °C. Moreover, the EC50 on CDK16/Cyclin Y came out at 0.107 µM.
The corresponding values for `COC(=O)c1cc(Nc2nc(Nc3ccc(CCNC(=O)OC(C)(C)C)cc3)nc3ccccc23)[nH]n1` [23a, methyl 5-((2-((4-(2-((tert-butoxycarbonyl)amino)ethyl)phenyl)amino)quinazolin-4-yl)amino)-1H-pyrazole-3-carboxylate] are 1 ± 0.1 °C, -0.1 ± 0.1 °C, 3.4 ± 0.6 °C and 9.36 ± 1.02 µM.
For `CC(C)(C)OC(=O)NCCc1ccc(Nc2ncc(Cl)c(Nc3cc(C4CC4)n[nH]3)n2)cc1` [13a, tert-butyl 4-((5-chloro-4-((3-cyclopropyl-1H-pyrazol-5-yl)amino)pyrimidin-2-yl)amino)phenethylcarbamate] the same measures were 4.6 °C, 5.9 °C, 3.2 °C and 0.354 ± 0.0605 µM.
For `CC(C)(C)OC(=O)NCCOCCNc1nccc(Nc2cc(C3CC3)n[nH]2)n1` [11d, tert-butyl (2-(2-((4-((3-cyclopropyl-1H-pyrazol-5-yl)amino)pyrimidin-2-yl)amino)ethoxy)-ethyl)carbamate] the same measures were 5.9 ± 0.2 °C, 6.3 ± 0.2 °C, 7.3 ± 0.1 °C and 0.067 ± 0.0013 µM.
Consider `CC(C)(C)OC(=O)NCCc1ccc(Nc2nccc(Nc3cc(C(C)(C)C)n[nH]3)n2)cc1` [40a, tert-butyl 4-((4-((3-(tert-butyl)-1H-pyrazol-5-yl)amino)pyrimidin-2-yl)amino)phenethyl-carbamate], for which the values for the ΔTm at 10 µM on GSK3B, at CDK2 and at CDK16 were 5.7 °C, 5.8 ± 0.1 °C and 4.4 ± 0.1 °C, respectively. Further, the EC50 on CDK16/Cyclin Y came out at 1.13 ± 0.0205 µM.
The corresponding values for `COC(=O)c1cc(Nc2ccnc(Nc3ccc(CCNC(=O)OC(C)(C)C)cc3)n2)[nH]n1` [21a, methyl 5-((2-((4-(2-((tert-butoxycarbonyl)amino)ethyl)phenyl)amino)pyrimidin-4-yl)amino)-1H-pyrazole-3-carboxylate] are 7.8 ± 0.2 °C, 3.1 ± 0.2 °C, 4.3 ± 0.4 °C and 0.652 ± 0.0156 µM.

These data come from PMC9736855, “Discovery of 3-Amino-1H-pyrazole-Based Kinase Inhibitors to Illuminate the Understudied PCTAIRE Family” (International Journal of Molecular Sciences, 2022).
